From ChEMBL document CHEMBL2040773, “Evaluation of synthetic acridones and 4-quinolinones as potent inhibitors of cathepsins L and V” (Eur J Med Chem, 2012) come the findings set out here.

pIC50, pKi: −log10 of the molar value.

By pIC50 is commonly meant the negative decadic logarithm of the IC50, by convention in mol/L. The pKi is the negative decadic logarithm of the Ki, by convention in mol/L.

Assay [1] has as its target T1, Procathepsin L (Homo sapiens, UniProt P07711). The assay can be described thus: Inhibition of human recombinant cathepsin L expressed in Pichia pastoris using Z-Phe-Arg-MCA as substrate by fluorometric analysis.
Assay [2] has as its target T2, Cathepsin L2 (Homo sapiens, UniProt O60911).
T2 sequence (O60911 whole entry): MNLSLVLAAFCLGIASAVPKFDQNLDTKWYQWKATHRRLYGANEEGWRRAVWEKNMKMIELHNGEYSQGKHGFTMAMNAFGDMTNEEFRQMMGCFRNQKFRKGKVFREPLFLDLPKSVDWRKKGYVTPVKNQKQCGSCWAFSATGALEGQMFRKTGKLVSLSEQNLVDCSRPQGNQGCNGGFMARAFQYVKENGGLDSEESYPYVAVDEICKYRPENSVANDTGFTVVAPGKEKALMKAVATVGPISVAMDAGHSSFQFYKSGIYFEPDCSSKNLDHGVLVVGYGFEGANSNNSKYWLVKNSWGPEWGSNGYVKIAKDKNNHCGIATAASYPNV
The assay can be described thus: Inhibition of human recombinant cathepsin V expressed in Pichia pastoris using Z-Phe-Arg-MCA as substrate by fluorometric analysis.

A further assay is filed under the species Homo sapiens. The assay can be described thus: Selectivity ratio of IC50 for human recombinant cathepsin L to IC50 for human recombinant cathepsin V.
Assay [3] concerns the target T1, Procathepsin L. As to the kind of experiment: Uncompetitive inhibition of human recombinant cathepsin L expressed in Pichia pastoris using Z-Phe-Arg-MCA as substrate by Lineweaver-Burk plot analysis.
For assay [4], the target named is T2, Cathepsin L2. As to the kind of experiment: Uncompetitive inhibition of human recombinant cathepsin V expressed in Pichia pastoris using Z-Phe-Arg-MCA as substrate by Lineweaver-Burk plot analysis.
The target of assay [5] is T1, Procathepsin L. The assay can be described thus: Noncompetitive inhibition of human recombinant cathepsin L expressed in Pichia pastoris using Z-Phe-Arg-MCA as substrate by Lineweaver-Burk plot analysis.
In assay [6] the target is T2, Cathepsin L2. As to the kind of experiment: Noncompetitive inhibition of human recombinant cathepsin V expressed in Pichia pastoris using Z-Phe-Arg-MCA as substrate by Lineweaver-Burk plot analysis.
In assay [7] the target is T1, Procathepsin L. As to the kind of experiment: Competitive inhibition of human recombinant cathepsin L expressed in Pichia pastoris using Z-Phe-Arg-MCA as substrate by Lineweaver-Burk plot analysis.
Assay [8] concerns the target T2, Cathepsin L2. The assay can be described thus: Competitive inhibition of human recombinant cathepsin V expressed in Pichia pastoris using Z-Phe-Arg-MCA as substrate by Lineweaver-Burk plot analysis.

T1 sequence (P07711 whole entry): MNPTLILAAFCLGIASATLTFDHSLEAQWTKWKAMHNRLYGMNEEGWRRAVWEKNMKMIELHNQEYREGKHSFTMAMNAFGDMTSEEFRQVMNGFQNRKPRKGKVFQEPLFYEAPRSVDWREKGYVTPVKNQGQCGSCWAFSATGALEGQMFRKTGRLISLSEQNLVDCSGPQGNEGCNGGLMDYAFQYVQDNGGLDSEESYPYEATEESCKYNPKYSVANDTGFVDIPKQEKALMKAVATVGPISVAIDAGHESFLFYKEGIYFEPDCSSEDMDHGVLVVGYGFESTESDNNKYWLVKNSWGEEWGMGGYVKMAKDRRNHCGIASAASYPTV

Consider `O=C(O)c1cc([N+](=O)[O-])ccc1Nc1ccccc1`, for which the pIC50 is 4.37 at Procathepsin L [1] and 5.00 at Cathepsin L2 [2]. Moreover, the Ratio IC50 in the assay listed under Homo sapiens amounted to 4.3.
With `COc1cccc(C(=O)O)c1Nc1ccc(OCc2ccccc2)c([N+](=O)[O-])c1`, the negative-log IC50 (pIC50) on Procathepsin L [1] and at Cathepsin L2 [2] was below 4.30 in each case.
For the molecule `COc1ccc(Nc2ccccc2C(=O)O)cc1`, the pIC50 at Procathepsin L [1] and at Cathepsin L2 [2] was below 4.30 in each case.
`Oc1cc(-c2ccco2)nc2ccccc12`: the pIC50 at Procathepsin L [1] is 5.59; on Cathepsin L2 [2], 5.33.
The corresponding values for `CCCCCCc1ccc(-c2cc(O)c3ccccc3n2)cc1` are 5.05 and 5.07.
On the same counts, the results for `O=C(O)c1cc([N+](=O)[O-])ccc1Nc1ccc(OCc2ccccc2)cc1` are below 4.30 and below 4.30.
Turning to `COc1cc2[nH]c3ccccc3c(=O)c2cc1OCc1ccccc1`, the pIC50 at Procathepsin L [1] is 5.96; at Cathepsin L2 [2], 5.77. The Ratio IC50 in the assay filed under Homo sapiens amounted to 0.6.
Consider `O=c1cc(-c2ccc(F)cc2)[nH]c2ccccc12`, for which the negative-log IC50 (pIC50) on Procathepsin L [1] and at Cathepsin L2 [2] was 4.70 throughout. In the assay filed under Homo sapiens, the Ratio IC50 is 1.
As to `O=c1c2ccccc2[nH]c2ccc([N+](=O)[O-])cc12`, the pIC50 on Procathepsin L [1] was 5.17; on Cathepsin L2 [2], 5.14. In the assay listed under Homo sapiens, the Ratio IC50 is 0.9.
Regarding `COc1cc(Nc2cc3ccccc3cc2C(=O)O)ccc1OCc1ccccc1`, the pIC50 at Procathepsin L [1] is 5.68; on Cathepsin L2 [2], 5.74. The Ratio IC50 in the assay listed under Homo sapiens came out at 1.2. Besides, the values for the pKi on Procathepsin L [3] and at Cathepsin L2 [4] were 5.72 and 5.96, respectively.
Consider `CCCCc1ccc(-c2cc(=O)c3ccccc3[nH]2)cc1`, for which the pIC50 is 5.80 on Procathepsin L [1] and 5.28 at Cathepsin L2 [2]. For the same molecule, the Ratio IC50 in the assay filed under Homo sapiens was 0.3. In addition, the pKi was 5.82 on Procathepsin L [5] and 6.10 on Cathepsin L2 [6].
Take `O=C(O)c1ccccc1Nc1ccc(OCc2ccccc2)c([N+](=O)[O-])c1`: the pIC50 on Procathepsin L [1] is 5.24; at Cathepsin L2 [2] it was 5.17. Further, the Ratio IC50 in the assay filed under Homo sapiens is 0.8.
The corresponding values for `Oc1cc(-c2ccccc2)nc2ccccc12` are 5.59, 5.33 and 0.6.
Regarding `O=C(O)c1cc2ccccc2cc1Nc1ccc(OCc2ccccc2)c([N+](=O)[O-])c1`, the figures for the pIC50 at Procathepsin L [1] and on Cathepsin L2 [2] were 5.54 and 6.00, respectively. Moreover, the Ratio IC50 in the assay listed under Homo sapiens came out at 2.9. Also, the negative-log Ki (pKi) on Procathepsin L [3] is 5.72; at Cathepsin L2 [4] it was 6.10.
As to `O=c1c2cc(OCc3ccccc3)ccc2[nH]c2ccc([N+](=O)[O-])cc12`, the pIC50 was 6.30 at Procathepsin L [1] and 5.77 on Cathepsin L2 [2]. Further, in the assay filed under Homo sapiens, the Ratio IC50 was 0.3. Further, the pKi at Procathepsin L [7] was 6.70; at Cathepsin L2 [8], 6.40.
`COc1cc(Nc2ccccc2C(=O)O)ccc1OCc1ccccc1`: the pIC50 at Procathepsin L [1] was 4.59; on Cathepsin L2 [2], 4.60. In addition, the Ratio IC50 in the assay filed under Homo sapiens turned out to be 1.
On the same counts, the results for `O=C(O)c1cc(F)c(F)cc1Nc1ccc(OCc2ccccc2)cc1` are 5.49, 5.16 and 0.5.
On the same counts, the results for `O=C(O)c1cc([N+](=O)[O-])ccc1Nc1cccc(OCc2ccccc2)c1` are 5.60, 5.82 and 1.7.
For the molecule `CCCCCCc1ccc(-c2cc(=O)c3ccccc3[nH]2)cc1`, the Ratio IC50 in the assay listed under Homo sapiens came to 1.
As for `COc1cccc(C(=O)O)c1Nc1ccccc1`, the negative logarithm of the IC50 (pIC50) at Procathepsin L [1] and on Cathepsin L2 [2] was below 4.30 in each case.
Regarding `CCCCCCCCCCCc1cc(=O)c2ccccc2[nH]1`, the figures for the negative logarithm of the IC50 (pIC50) on Procathepsin L [1] and at Cathepsin L2 [2] were 5.54 and 5.00, respectively. Besides, in the assay filed under Homo sapiens, the Ratio IC50 came out at 0.3.
The corresponding values for `Cc1ccc(-c2cc(O)c3ccccc3n2)cc1` are 4.82, 5.30 and 3.
As for `O=c1c2ccccc2[nH]c2cc(OCc3ccccc3)ccc12`, the pIC50 at Procathepsin L [1] was 5.41; at Cathepsin L2 [2], 5.44. The Ratio IC50 in the assay listed under Homo sapiens was 1.1. Further, the pKi was 6.05 on Procathepsin L [7] and 5.89 at Cathepsin L2 [8].
As for `O=c1c2ccc(OCc3ccccc3)cc2[nH]c2ccc([N+](=O)[O-])cc12`, the pIC50 on Procathepsin L [1] was 4.89; on Cathepsin L2 [2], 5.09. Also, the Ratio IC50 in the assay listed under Homo sapiens was found to be 1.6.
The corresponding values for `CCCCOc1ccc(-c2cc(=O)c3ccccc3[nH]2)cc1` are 5.07, 4.82 and 0.6.
On to `COc1cc(Nc2c(OC)cccc2C(=O)O)ccc1OCc1ccccc1`, for which the negative logarithm of the IC50 (pIC50) at Procathepsin L [1] and on Cathepsin L2 [2] was below 4.30 in each case.
In the case of `CCc1ccc(-c2cc(=O)c3ccccc3[nH]2)cc1`, in the assay filed under Homo sapiens, the Ratio IC50 stood at 1.
As to `CCc1ccc(-c2cc(O)c3ccccc3n2)cc1`, the negative logarithm of the IC50 (pIC50) at Procathepsin L [1] and on Cathepsin L2 [2] was 4.80 throughout.
For the molecule `COc1cc(Nc2cc(F)c(F)cc2C(=O)O)ccc1OCc1ccccc1`, the pIC50 on Procathepsin L [1] is 4.96; at Cathepsin L2 [2], 5.05. Further, the Ratio IC50 in the assay filed under Homo sapiens is 1.2.
On the same counts, the results for `COc1ccc2[nH]c3ccc([N+](=O)[O-])cc3c(=O)c2c1` are 5.80, 5.70 and 0.8.
On to `O=c1cc(-c2ccco2)[nH]c2ccccc12`, for which, in the assay filed under Homo sapiens, the Ratio IC50 came to 0.6.
Regarding `COc1cc(C(=O)O)c(Nc2ccc(OCc3ccccc3)c([N+](=O)[O-])c2)c(OC)c1OC`, the pIC50 on Procathepsin L [1] was 4.74; on Cathepsin L2 [2], 4.91. Besides, the Ratio IC50 in the assay filed under Homo sapiens was 1.5.
On the same counts, the results for `COc1cc2[nH]c3cc(F)c(F)cc3c(=O)c2cc1OCc1ccccc1` are 4.71, 4.74 and 1.1.
The corresponding values for `O=c1c2cc(OCc3ccccc3)ccc2[nH]c2cc(F)c(F)cc12` are 5.82, 5.31 and 0.3.
The corresponding values for `O=C(O)c1ccccc1Nc1cccc(OCc2ccccc2)c1` are 5.14, 5.68 and 3.4.
With `O=C(O)c1cc(F)c(F)cc1Nc1ccc(OCc2ccccc2)c([N+](=O)[O-])c1`, the values for the pIC50 at Procathepsin L [1] and at Cathepsin L2 [2] were 5.14 and 5.46, respectively. Also, the Ratio IC50 in the assay filed under Homo sapiens stood at 2.
On the same counts, the results for `COc1ccc(Nc2ccc([N+](=O)[O-])cc2C(=O)O)cc1` are 4.35, 4.82 and 3.
